These results are taken from PMC7782552, “Activation of mitochondrial TUFM ameliorates metabolic dysregulation through coordinating autophagy induction” (Communications Biology, 2021).

Structures are written as SMILES.

This assay deals with T1, TUFM (mitochondrial elongation factor Tu) (Mus musculus, UniProt Q8BFR5).
T1 construct: endogenous protein in 3T3-L1 cell lysate
The assay can be described thus: DARTS (pronase protection) immunoblot, dose-dependent, and DARTS LC-MS/MS in 3T3-L1 lysate. It counts as biochemical. For orientation: A western blot detects proteins with antibodies after separation by electrophoresis.

As for `COc1ccc(-c2oc3cc(O)cc(O)c3c(=O)c2O)cc1` [Kaem, kaempferide], the concentration for a half-maximal effect (EC50) (commonly the concentration at which the effect is half-maximal) came to 14.4 µM.
